Reference: patent publication US11098027B2, “Therapeutic heterocyclic compounds” (Gilead Sciences, Inc., priority 2018, dated 2021)

Each molecule was assayed against T1, IDO1 (Homo sapiens, UniProt P14902) (assay: Cell-based (HeLa) assay for measurement of IDO1 inhibition (kynurenine levels in supernatant)). Details: H1-HeLa cells, IDO1 induced with IFNγ, 48 hour incubation, kynurenine read by absorbance at 480 nm; geometric mean of a minimum of four determinations.
T1 construct: HeLa cells were treated with a test compound in the presence of IFNγ, which induces IDO1 expression; host or cells: H1-HeLa cells, IDO1 induced with IFNγ
T1 sequence (P14902 whole entry): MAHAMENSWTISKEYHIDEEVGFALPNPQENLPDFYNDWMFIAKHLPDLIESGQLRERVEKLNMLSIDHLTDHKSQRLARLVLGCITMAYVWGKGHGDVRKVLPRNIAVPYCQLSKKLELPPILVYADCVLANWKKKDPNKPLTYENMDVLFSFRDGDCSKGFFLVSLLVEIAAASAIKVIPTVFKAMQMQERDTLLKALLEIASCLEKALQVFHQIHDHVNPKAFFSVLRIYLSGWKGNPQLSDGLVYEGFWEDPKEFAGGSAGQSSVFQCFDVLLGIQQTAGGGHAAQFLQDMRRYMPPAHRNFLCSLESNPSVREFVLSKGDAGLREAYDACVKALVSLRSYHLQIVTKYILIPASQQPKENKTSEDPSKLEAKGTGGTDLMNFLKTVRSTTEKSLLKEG
Description: Example B-1. Cell-Based (HeLa) Assay for Measurement of IDO1 Inhibition
To measure IDO1 inhibition in tissue culture, HeLa cells were treated with a test compound in the presence of IFNγ, which induces IDO1 expression. Following incubation, cell supernatants were assayed for kynurenine levels, an indicator of IDO1 activity.
The following day, the test compounds were added in DMSO (0.5% final) at various concentrations, and IDO1 was inducibly expressed by the addition of 50 uL/well of 50 ng/mL of INFγ (Peprotech #300-02) in cell plating media. As a positive control, 50 uL of the cell plating media without IFNγ was added to several wells. Following a 48 hour incubation, the plates were spun down at 1,200 RPM for 5 min at 10° C. 65 μL/well of the supernatant was then transferred to new 384-well plates (Thermo #262160) that contained 10 uL/well of 30% TCA (Sigma # TO699), and the plates were sealed and incubated at 60° C. for 30 min. The plates were then centrifuged for 15 min at 2,000 RPM at 10° C. 40 μL/well of the supernatant was transferred to new 384-well plates (Thermo #262160) and was reacted with 40 μL/well of 2% (w/v) p-dimethlyaminobenzaldehyde (Sigma #156417) in glacial acetic acid (Sigma #A6283). The reaction was incubated at room temperature for 10 min and absorbance at 480 nm was read using a PerkinElmer Envision plate reader.
Data in Table 1 were normalized based on positive (−IFNγ) and negative (+IFNγ) controls and EC50 values were calculated from the fit of the dose—response curves to a four-parameter equation. All EC50 values represent geometric mean values of a minimum of four determinations. These assays generally produced results within 2-fold of the reported mean
Work on `CC1(C)C(=O)N(c2ncccn2)c2cccc(-c3ccc(C(F)(F)F)c(C(=O)Nc4ccc(F)cc4)c3)c21` [Compound 1, 5-(3,3-dimethyl-2-oxo-1-(pyrimidin-2-yl)indolin-4-yl)-N-(4-fluorophenyl)-2-(trifluoromethyl)benzamide] yielded an EC50 of 10 nM. `CC1(C)C(=O)N(c2ccccn2)c2cccc(-c3ccc(C(F)(F)F)c(C(=O)Nc4ccc(F)cc4)c3)c21` [Example 2, 5-(3,3-dimethyl-2-oxo-1-(pyridin-2-yl)indolin-4-yl)-N-(4-fluorophenyl)-2-(trifluoromethyl)benzamide] was tested, and the EC50 was 11 nM. `CC1(C)C(=O)N(c2ccncn2)c2cccc(-c3ccc(C(F)(F)F)c(C(=O)Nc4ccc(F)cc4)c3)c21` [Example 3, 5-(3,3-dimethyl-2-oxo-1-(pyrimidin-4-yl)indolin-4-yl)-N-(4-fluorophenyl)-2-(trifluoromethyl)benzamide] showed an EC50 of 11 nM. For `CC1(C)C(=O)N(c2cnccn2)c2cccc(-c3ccc(C(F)(F)F)c(C(=O)Nc4ccc(F)cc4)c3)c21` [Example 4, 5-(3,3-dimethyl-2-oxo-1-(pyrazin-2-yl)indolin-4-yl)-N-(4-fluorophenyl)-2-(trifluoromethyl)benzamide], the EC50 was 11 nM. `CC1(C)C(=O)N(c2cc[nH]n2)c2cccc(-c3ccc(C(F)(F)F)c(C(=O)Nc4ccc(F)cc4)c3)c21` [Example 5, 5-(3,3-dimethyl-2-oxo-1-(1H-pyrazol-3-yl)indolin-4-yl)-N-(4-fluorophenyl)-2-(trifluoromethyl)benzamide] was tested, and the EC50 was 13 nM. Molecule `CC1(C)C(=O)N(c2cccnc2)c2cccc(-c3ccc(C(F)(F)F)c(C(=O)Nc4ccc(F)cc4)c3)c21` [Example 7, 5-(3,3-dimethyl-2-oxo-1-(pyridin-3-yl)indolin-4-yl)-N-(4-fluorophenyl)-2-(trifluoromethyl)benzamide] has an EC50 of 19 nM. `CC1(C)C(=O)N(c2ccncc2)c2cccc(-c3ccc(C(F)(F)F)c(C(=O)Nc4ccc(F)cc4)c3)c21` [Example 8, 5-(3,3-dimethyl-2-oxo-1-(pyridin-4-yl)indolin-4-yl)-N-(4-fluorophenyl)-2-(trifluoromethyl)benzamide] gave an EC50 of 24 nM. For `Cc1ccc(-c2cccc3c2C(C)(C)C(=O)N3c2ncccn2)cc1C(=O)Nc1ccc(F)cc1` [Example 9, 5-(3,3-dimethyl-2-oxo-1-(pyrimidin-2-yl)indolin-4-yl)-N-(4-fluorophenyl)-2-methylbenzamide], the EC50 was 33 nM. Work on `Cc1ccc(-c2cccc3c2C(C)(C)C(=O)N3c2ccccn2)cc1C(=O)Nc1ccc(F)cc1` [Example 10, 5-(3,3-dimethyl-2-oxo-1-(pyridin-2-yl)indolin-4-yl)-N-(4-fluorophenyl)-2-methylbenzamide] yielded an EC50 of 34 nM. With `CC1(C)C(=O)N(c2c[nH]cn2)c2cccc(-c3ccc(C(F)(F)F)c(C(=O)Nc4ccc(F)cc4)c3)c21` [Example 11, 5-(1-(1H-imidazol-4-yl)-3,3-dimethyl-2-oxoindolin-4-yl)-N-(4-fluorophenyl)-2-(trifluoromethyl)benzamide] the EC50 was 41 nM. With `Cc1ncc(-c2cccc3c2C(C)(C)C(=O)N3c2ccccn2)cc1C(=O)Nc1ccc(F)cc1` [Example 12, 5-(3,3-dimethyl-2-oxo-1-(pyridin-2-yl)indolin-4-yl)-N-(4-fluorophenyl)-2-methylnicotinamide] the EC50 was 66 nM. Molecule `Cc1ncc(-c2cccc3c2C(C)(C)C(=O)N3c2cccnc2)cc1C(=O)Nc1ccc(F)cc1` [Example 13, 5-(3,3-dimethyl-2-oxo-1-(pyridin-3-yl)indolin-4-yl)-N-(4-fluorophenyl)-2-methylnicotinamide] has an EC50 of 94 nM. In the case of `Cc1ncc(-c2cccc3c2C(C)(C)C(=O)N3c2ncccn2)cc1C(=O)Nc1ccc(F)cc1` [Example 14, 5-(3,3-dimethyl-2-oxo-1-(pyrimidin-2-yl)indolin-4-yl)-N-(4-fluorophenyl)-2-methylnicotinamide], the EC50 is reported as 105 nM. `Cc1ncc(-c2cccc3c2C(C)(C)C(=O)N3c2cnccn2)cc1C(=O)Nc1ccc(F)cc1` [Example 15, 5-(3,3-dimethyl-2-oxo-1-(pyrazin-2-yl)indolin-4-yl)-N-(4-fluorophenyl)-2-methylnicotinamide] showed an EC50 of 522 nM. `CC1(C)C(=O)N(Cc2ncccn2)c2cccc(-c3ccc(C(F)(F)F)c(C(=O)Nc4ccc(F)cc4)c3)c21` [Example 16, 5-(3,3-dimethyl-2-oxo-1-(pyrimidin-2-ylmethyl)indolin-4-yl)-N-(4-fluorophenyl)-2-(trifluoromethyl)benzamide] showed an EC50 of 810 nM. With `CC1(C)C(=O)N(c2ccccn2)c2nccc(-c3ccc(C(F)(F)F)c(C(=O)Nc4ccc(F)cc4)c3)c21` [Example 17, 5-(3,3-dimethyl-2-oxo-1-(pyridin-2-yl)-2,3-dihydro-1H-pyrrolo[2,3-b]pyridin-4-yl)-N-(4-fluorophenyl)-2-(trifluoromethyl)benzamide] the EC50 was 13 nM. For `CC1(C)C(=O)N(c2cn[nH]c2)c2cccc(-c3ccc(C(F)(F)F)c(C(=O)Nc4ccc(F)cc4)c3)c21` [Example 18, 5-(3,3-dimethyl-2-oxo-1-(1H-pyrazol-4-yl)indolin-4-yl)-N-(4-fluorophenyl)-2-(trifluoromethyl)benzamide], the EC50 was 16 nM. Work on `CC1(C)C(=O)N(c2cccnc2)c2nccc(-c3ccc(C(F)(F)F)c(C(=O)Nc4ccc(C#N)cn4)c3)c21` [Example 19, N-(5-cyanopyridin-2-yl)-5-(3,3-dimethyl-2-oxo-1-(pyridin-3-yl)-2,3-dihydro-1H-pyrrolo[2,3-b]pyridin-4-yl)-2-(trifluoromethyl)benzamide] yielded an EC50 of 33 nM. Work on `CC1(C)C(=O)N(c2cncc(F)c2)c2cccc(-c3cnc(C(F)(F)F)c(C(=O)Nc4ccc(F)cc4)c3)c21` [Example 20, N-(4-fluorophenyl)-5-(1-(5-fluoropyridin-3-yl)-3,3-dimethyl-2-oxoindolin-4-yl)-2-(trifluoromethyl)nicotinamide] yielded an EC50 of 36 nM. Work on `CC1(C)C(=O)N(c2ncccn2)c2cccc(-c3ccc(C(F)(F)F)c(C(=O)Nc4cccnc4)c3)c21` [Example 21, 5-(3,3-dimethyl-2-oxo-1-(pyrimidin-2-yl)indolin-4-yl)-N-(pyridin-3-yl)-2-(trifluoromethyl)benzamide] yielded an EC50 of 98 nM. `Cc1ccc(-c2cccc3c2[nH]c(=O)n3-c2cccc(F)c2F)cc1C(=O)Nc1ccc(F)cc1` [Example 22, 5-(1-(2,3-difluorophenyl)-2-oxo-2,3-dihydro-1H-benzo[d]imidazol-4-yl)-N-(4-fluorophenyl)-2-methylbenzamide] was tested, and the EC50 was 62 nM. `Cn1cc(N2C(=O)C(C)(C)c3c(-c4ccc(C(F)(F)F)c(C(=O)Nc5ccc(F)cc5)c4)cccc32)cn1` [Example 23, 5-(3,3-dimethyl-1-(1-methyl-1H-pyrazol-4-yl)-2-oxoindolin-4-yl)-N-(4-fluorophenyl)-2-(trifluoromethyl)benzamide] was tested, and the EC50 was 311 nM. In the case of `CC1(C)C(=O)N(c2ncccn2)c2cccc(-c3ccc(OC(F)(F)F)c(C(=O)Nc4ccc(F)cc4)c3)c21` [Example 24, 5-(3,3-dimethyl-2-oxo-1-(pyrimidin-2-yl)indolin-4-yl)-N-(4-fluorophenyl)-2-(trifluoromethoxy)benzamide], the EC50 is reported as 48 nM. With `CC1(C)C(=O)N(c2ncccn2)c2cccc(-c3cc(C(=O)Nc4ccc(F)cc4)c(C(F)(F)F)cn3)c21` [Example 25, 2-(3,3-dimethyl-2-oxo-1-(pyrimidin-2-yl)indolin-4-yl)-N-(4-fluorophenyl)-5-(trifluoromethyl)isonicotinamide] the EC50 was 39 nM. In the case of `CC1(C)C(=O)N(c2ncccn2)c2cccc(-c3ccc(C(F)(F)F)c(C(=O)Nc4ccncc4)c3)c21` [Example 26, 5-(3,3-dimethyl-2-oxo-1-(pyrimidin-2-yl)indolin-4-yl)-N-(pyridin-4-yl)-2-(trifluoromethyl)benzamide], the EC50 is reported as 44 nM. For `CC1(C)C(=O)N(c2ccccn2)c2nccc(-c3ccc(C(F)(F)F)c(C(=O)Nc4ccc(F)c(F)c4)c3)c21` [Example 27, N-(3,4-difluorophenyl)-5-(3,3-dimethyl-2-oxo-1-(pyridin-2-yl)-2,3-dihydro-1H-pyrrolo[2,3-b]pyridin-4-yl)-2-(trifluoromethyl)benzamide], the EC50 was 63 nM. Work on `CC1(C)C(=O)N(c2ccccn2)c2nccc(-c3ccc(C(F)(F)F)c(C(=O)Nc4ccc(F)cn4)c3)c21` [Example 28, 5-(3,3-dimethyl-2-oxo-1-(pyridin-2-yl)-2,3-dihydro-1H-pyrrolo[2,3-b]pyridin-4-yl)-N-(5-fluoropyridin-2-yl)-2-(trifluoromethyl)benzamide] yielded an EC50 of 36 nM. For `O=C(Nc1ccc(F)cc1)c1cc(-c2cccc3c2[nH]c(=O)n3-c2ncccn2)ccc1C(F)(F)F` [Example 29, N-(4-fluorophenyl)-5-(2-oxo-1-(pyrimidin-2-yl)-2,3-dihydro-1H-benzo[d]imidazol-4-yl)-2-(trifluoromethyl)benzamide], the EC50 was 179 nM. `CC1(C)C(=O)N(c2ncccn2)c2cccc(-c3ccc(C(F)(F)F)c(C(=O)Nc4ccc(F)c(F)c4)c3)c21` [Example 30, N-(3,4-difluorophenyl)-5-(3,3-dimethyl-2-oxo-1-(pyrimidin-2-yl)indolin-4-yl)-2-(trifluoromethyl)benzamide] gave an EC50 of 24 nM.
